Our source for the TGI and GI50 values is PubChem BioAssay (NCI).

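These data come from cells grown in 96-well plates and exposed to compound for 48 hours at five concentrations. GI50 is the concentration that inhibits growth by half. TGI marks complete inhibition of growth.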

Some test systems named below: A498 renal; DMS 114 small cell lung; HOP-62 NSCLC; IGROV1 ovarian; KM20L2 colon; RPMI-8226 leukemia; SNB-75 CNS; UACC-257 melanoma; UO-31 renal.
What all share (assay): DTP human tumour cell line panel, 48 h

As to `Nc1ccc(C(=O)N/C(=C\c2ccc3c(c2)OCO3)c2nc3ccc4c(c3[nH]2)C(=O)c2ccccc2C4=O)cc1`, the TGI (in general, the concentration giving total growth inhibition) is 93.9 µM in the test with A498 renal; over 100 µM in the test with DMS 114 small cell lung; over 100 µM in the test with HOP-62 NSCLC; over 100 µM in the test on IGROV1 ovarian; over 100 µM with KM20L2 colon; over 100 µM in the test with RPMI-8226 leukemia. In addition, the total growth inhibition concentration (TGI) in the test on SNB-75 CNS is 57.8 µM; in the test with UACC-257 melanoma it was over 100 µM; in the test with UO-31 renal it was 18.7 µM.

As to `Cc1ccc(S(=O)(=O)N/N=C/CN2C(=O)c3ccccc3C2=O)cc1`, the total growth inhibition concentration (TGI) with A498 renal, with DMS 114 small cell lung, in the test with HOP-62 NSCLC, with IGROV1 ovarian, in the test with KM20L2 colon and with RPMI-8226 leukemia was over 100 µM each time. For the same compound, the TGI with SNB-75 CNS, in the test with UACC-257 melanoma and in the test with UO-31 renal was over 100 µM each time.

As to `CCCN(CCC)c1c([N+](=O)[O-])cc(C(N)=O)cc1[N+](=O)[O-]`, the total growth inhibition concentration (TGI) in the test with DMS 114 small cell lung, with IGROV1 ovarian, in the test on RPMI-8226 leukemia, with SNB-75 CNS, with UACC-257 melanoma and in the test on UO-31 renal was over 100 µM throughout.

On to `CC(C)C(NCc1c2ccccc2nc2ccccc12)C(=O)O` (configuration not stated), for which the TGI is 90.1 µM with DMS 114 small cell lung; over 100 µM with HOP-62 NSCLC; over 100 µM in the test on IGROV1 ovarian; over 100 µM in the test with KM20L2 colon; over 100 µM in the test on RPMI-8226 leukemia; over 100 µM with SNB-75 CNS. Besides, the TGI in the test with UACC-257 melanoma is over 100 µM.

Turning to `Cc1nc(=O)n2c(c1C(=O)Nc1ccc(Cl)cc1)NCCC2`, the concentration for total growth inhibition (TGI) in the test on DMS 114 small cell lung, in the test with HOP-62 NSCLC, in the test with IGROV1 ovarian and with RPMI-8226 leukemia was over 100 µM in each case.

For the compound `CCC[CH2][Sn]1([CH2]CCC)[O]N=Cc2ccccc2[O]1`, the GI50 (in general, the concentration that inhibits growth by half) is 1.43 µM in the test on A498 renal; 0.309 µM in the test with DMS 114 small cell lung; 1.62 µM in the test on HOP-62 NSCLC; 1.03 µM in the test with IGROV1 ovarian; 1.26 µM in the test on KM20L2 colon; 0.231 µM with RPMI-8226 leukemia. The values for the 50% growth inhibitory concentration (GI50) in the test with SNB-75 CNS, in the test on UACC-257 melanoma and in the test on UO-31 renal were 0.359 µM, 1.31 µM and 1.33 µM, respectively. Also, the concentration for total growth inhibition (TGI) in the test on A498 renal came to 2.8 µM; with DMS 114 small cell lung, 0.94 µM; in the test on HOP-62 NSCLC, 3.12 µM; in the test with IGROV1 ovarian, 2.25 µM; in the test with KM20L2 colon, 2.55 µM; in the test on RPMI-8226 leukemia it was 0.848 µM. Further, the TGI was found to be 1.54 µM in the test with SNB-75 CNS, 2.74 µM with UACC-257 melanoma and 2.61 µM in the test with UO-31 renal.

For the compound `CCN(Cc1cccc(C)c1)c1ccc(CO)c(Cl)c1`, the concentration for 50% growth inhibition (GI50) in the test on A498 renal is 0.0362 µM; with HOP-62 NSCLC, 2.55 µM; with IGROV1 ovarian it was 0.152 µM; in the test with RPMI-8226 leukemia it was 6.2 µM; in the test with SNB-75 CNS, 13.1 µM; in the test with UACC-257 melanoma, 0.188 µM. Moreover, the GI50 in the test with UO-31 renal was 6.47 µM. In addition, the total growth inhibition concentration (TGI) in the test on A498 renal is 0.162 µM; in the test with HOP-62 NSCLC, 22 µM; with IGROV1 ovarian, 1.18 µM; in the test with RPMI-8226 leukemia, 31.2 µM; in the test with SNB-75 CNS, 37.5 µM; in the test on UACC-257 melanoma, 0.525 µM. Further, the TGI with UO-31 renal is 20.6 µM.

As to `Cn1cc(C2=C(c3cn(C)c4cc(Cl)ccc34)C(=O)NC2=O)c2ccccc21`, the 50% growth inhibitory concentration (GI50) is 0.0619 µM in the test on A498 renal; 0.124 µM in the test on HOP-62 NSCLC; 0.24 µM in the test on IGROV1 ovarian; 0.0939 µM in the test on RPMI-8226 leukemia; 0.0893 µM in the test on SNB-75 CNS; 0.169 µM in the test with UACC-257 melanoma. In the test with UO-31 renal, the GI50 is 0.195 µM. Further, the TGI is 0.928 µM in the test on A498 renal; over 25 µM in the test with HOP-62 NSCLC; over 13.2 µM with IGROV1 ovarian; over 15.2 µM in the test on RPMI-8226 leukemia; over 25 µM in the test with SNB-75 CNS; over 25 µM in the test with UACC-257 melanoma. The TGI in the test with UO-31 renal was over 25 µM.

For `C/C(=C\COc1ccc2ccc(=O)oc2c1)CCC(=O)C(C)(C)O`, the TGI with A498 renal is 64.2 µM; with HOP-62 NSCLC, over 100 µM; in the test on IGROV1 ovarian, over 100 µM; with RPMI-8226 leukemia it was 50 µM; in the test on SNB-75 CNS it was over 100 µM; in the test on UACC-257 melanoma, over 100 µM. The compound also displayed a TGI in the test on UO-31 renal of 91.9 µM.

For `NS(=O)(=O)c1ccc(N=Nc2cc3ccccc3c(C(=O)O)c2O)cc1`, the total growth inhibition concentration (TGI) in the test with A498 renal was over 86.8 µM; in the test with HOP-62 NSCLC, over 100 µM; with IGROV1 ovarian, over 100 µM; in the test with RPMI-8226 leukemia it was over 100 µM; in the test with SNB-75 CNS, over 94.4 µM; in the test with UACC-257 melanoma, over 92.3 µM. Also, the TGI in the test with UO-31 renal worked out at 99 µM.

As for `O=C(CN1CCN(c2cc3c(cc2F)c(=O)c(C(=O)O)cn3C2CC2)CC1)Nc1ccc(C(=O)/C=C/c2ccccc2)cc1`, the GI50 in the test with A498 renal was 1.28 µM; in the test with HOP-62 NSCLC, 4.46 µM; with IGROV1 ovarian, 3.67 µM; with RPMI-8226 leukemia, 2.52 µM; in the test on SNB-75 CNS it was 3.22 µM; with UACC-257 melanoma, 3.9 µM. Moreover, the GI50 with UO-31 renal was 2.78 µM. For the same compound, the TGI in the test with A498 renal was 7.37 µM; in the test on HOP-62 NSCLC it was over 100 µM; with IGROV1 ovarian, over 100 µM; in the test with RPMI-8226 leukemia it was 6.73 µM; in the test on SNB-75 CNS, over 100 µM; with UACC-257 melanoma, 90.8 µM. This compound also had a TGI in the test with UO-31 renal of 45.4 µM.

In the case of `COc1cc2cc(Oc3ccc(NC(=O)Nc4cc(C(F)(F)F)cc(C(F)(F)F)c4)cc3)c(C)nc2cc1OCCN1CCCCC1`, the GI50 is 1.75 µM in the test on A498 renal; 1.64 µM with HOP-62 NSCLC; 1.35 µM with IGROV1 ovarian; 2.08 µM in the test on RPMI-8226 leukemia; 1.45 µM in the test with SNB-75 CNS; 1.98 µM with UACC-257 melanoma. In addition, in the test with UO-31 renal, the GI50 is 1.28 µM. Besides, the TGI in the test on A498 renal amounted to 3.23 µM; in the test on HOP-62 NSCLC, 3.3 µM; with IGROV1 ovarian, 2.79 µM; in the test on RPMI-8226 leukemia, 4.72 µM; with SNB-75 CNS, 2.99 µM; in the test on UACC-257 melanoma, 3.97 µM. The same compound registered a TGI in the test with UO-31 renal of 2.55 µM.

For the compound `Nc1ccc(Sc2ccc3c4c2cccc4c(=O)n2c4ccccc4nc32)cc1`, the GI50 with A498 renal is 3.67 µM; in the test on HOP-62 NSCLC, 4.34 µM; in the test with IGROV1 ovarian, 3.9 µM; in the test with RPMI-8226 leukemia, 2.5 µM; in the test on SNB-75 CNS, 3.35 µM; in the test on UACC-257 melanoma it was 11.8 µM. In the test with UO-31 renal, the GI50 was 2.43 µM. Also, the TGI in the test with A498 renal was 57.9 µM; with HOP-62 NSCLC it was 17.2 µM; with IGROV1 ovarian, 32 µM; in the test on RPMI-8226 leukemia, 14.3 µM; in the test on SNB-75 CNS it was 48.1 µM; in the test on UACC-257 melanoma, 43.5 µM. In addition, the TGI in the test with UO-31 renal came out at 18.7 µM.
